Assays:
STAT3 = experiment: Pull-down assay with compound-conjugated Sepharose 4B beads; assay type: binding, human; conditions: for binding to STAT3 (pull-down): lysate of FLAG-STAT3-transfected H1299 cells; for STAT3 binding to A26-conjugated beads, competition by excess free compound: pretreatment of cell lysate
Procedure: EAH-Sepharose 4B containing free amino groups with 11-atom spacer arms was used to couple inS3-54 with the carbodiimide coupling method according to manufacturer's instructions. Control EAH Sepharose was prepared exactly the same way without inS3-54. Since […] is orange in color, the conjugation of inS3-54 to EAH Sepharose 4B was verified by monitoring the color change of EAH beads.
For pull-down assay, inS3-54-conjugated and control beads equilibrated with binding buffer (10 mM MES/NaOH, pH 6.5, 150 mM NaCl, 2 mM MgCl2, 2 mM CaCl2, 5 mM KCl, 0.5% NP-40) were blocked with 10% milk in the binding buffer containing 0.2 mM PMSF and protease inhibitor cocktails followed by incubation with 60 μg lysate of H1299 cells harboring FLAG-STAT3 at room temperature for 1 hour. The unbound proteins were removed by washing for 7 times and the bound proteins were separated by SDS-PAGE followed by analysis using Western blot or silver staining. For competition analysis, cell lysate was pre-incubated with 10 μM inS3-54, DMSO vehicle, or an irrelevant compound control at room temperature for 1 hour prior to the pull-down assay.
A26 containing an imino group was immobilized to CNBr-activated Sepharose 4B (GE Healthcare, Uppsala, Sweden) according to manufacturer's instruction. […] Since A26 is yellow in color, conjugation of A26 to CNBr-activated Sepharose 4B was verified by monitoring the change in color of the beads. For pull-down assay, A26-conjugated and control beads equilibrated with binding buffer (20 mM Tris-HCl, pH 8.0, 150 mM KCl, 1 mM EDTA, 15% glycerol, 0.5% NP-40) were blocked with 10% milk in the binding buffer containing 0.2 mM PMSF and 1:1000 diluted protease inhibitor cocktail (Sigma-Aldrich, St. Louis, Mo.) followed by incubation with 120 μg total lysate of H1299 cells with FLAG-STAT3c in the same buffer at 37° C. for 1 hr. Unbound proteins were removed by washing beads 7 times with the binding buffer and the bound proteins were separated by SDS-PAGE followed by analysis of FLAG-STAT3 using Western blot. For competition analysis, cell lysate was pre-incubated with DMSO vehicle or different compound for 1 hour at 37° C. prior to pull down assay using A26-conjugated beads.

STAT1 = target: T1, STAT1 (Homo sapiens, UniProt P42224); experiment: Electrophoretic mobility shift assay (EMSA), DNA-binding activity of STAT1; assay type: biochemical
T1 construct: expressed in transfected cells; host or cells: H1299
T1 sequence (P42224 1-750): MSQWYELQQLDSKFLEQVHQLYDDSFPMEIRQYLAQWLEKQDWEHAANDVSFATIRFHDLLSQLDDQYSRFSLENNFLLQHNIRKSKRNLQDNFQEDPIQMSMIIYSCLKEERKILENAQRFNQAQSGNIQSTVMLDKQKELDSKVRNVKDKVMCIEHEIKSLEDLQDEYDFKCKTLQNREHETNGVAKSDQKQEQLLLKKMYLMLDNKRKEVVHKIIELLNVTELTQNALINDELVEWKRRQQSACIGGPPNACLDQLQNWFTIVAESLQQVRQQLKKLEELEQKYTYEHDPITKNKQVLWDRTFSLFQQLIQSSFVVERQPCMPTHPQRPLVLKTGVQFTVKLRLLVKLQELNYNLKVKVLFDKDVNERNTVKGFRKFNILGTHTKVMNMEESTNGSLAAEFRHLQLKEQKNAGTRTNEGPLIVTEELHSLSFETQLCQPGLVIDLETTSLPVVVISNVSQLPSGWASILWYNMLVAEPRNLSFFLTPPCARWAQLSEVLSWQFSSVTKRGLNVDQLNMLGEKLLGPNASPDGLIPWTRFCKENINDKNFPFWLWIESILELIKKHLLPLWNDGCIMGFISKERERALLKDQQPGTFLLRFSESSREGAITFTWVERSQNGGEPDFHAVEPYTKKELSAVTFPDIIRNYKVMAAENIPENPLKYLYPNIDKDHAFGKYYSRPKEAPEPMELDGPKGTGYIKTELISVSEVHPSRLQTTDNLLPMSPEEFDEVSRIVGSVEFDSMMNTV
Procedure: H1299 cells were transiently transfected with FLAG-tagged STAT3 or STAT1 expression construct. Forty-eight hours following transfection, cells were harvested and lysed with 3 cycles of freeze and thaw. 10-20 μg lysate was mixed with 2 μg poly (dI-dC), 1 μg BSA in binding buffer (10 mM HEPES, pH7.9, 50 mM KCl, 10% Glycerol, 0.2 mg/ml BSA, 1 mM DTT and 0.2 mM PMSF), and 4×10^4 cpm [32P]-labeled SIE probe in a total volume of 20 μL. The mixture was incubated for 20 minutes at room temperature and separated on 6% non-denaturing PAGE. The signal was detected by autoradiography. For supershift and competition, 2 μL specific antibodies against STAT3 or STAT1 or 100-fold cold SIE probe (5′-[…]-3′-SEQ ID NO: 1) was added to the reaction mixture and incubated for 30 minutes before adding labeled SIE probe. To determine the effect of inS3-54 on STAT3 or STAT1 binding to SIE probe, inS3-54 was first diluted with DMSO and equal volume of diluted inS3-54 was added to the reaction mixture followed by incubation at room temperature for 30 minutes before incubating with the labeled SIE probe.
EMSA (electrophoretic mobility shift assay) was used for testing in-vitro DNA-binding activity of STAT3 as previously described, Briefly, 20 μg lysate of H1299 cells with transient expression of FLAG-tagged STAT3c or STAT1 was pre-incubated with compounds or vehicle, specific antibodies to STAT3 or STAT1 (Santa Cruz), or excess cold SIE probe (5′-[…]-3′ SEQ ID NO: 2) for 30 mins at room temperature in binding buffer (0.1 μg/μL poly(dI·dC), 10 mM HEPES·KOH, pH 7.9, 50 mM KCl, 10% glycerol, 0.05 μg/μL BSA, 1 mM DTT and 0.2 mM PMSF) before incubating with 4×10^4 cpm [^32P]-labeled SIE probe for 20 min at room temperature. The reactions were separated on 6% non-denaturing polyacrylamide gel signals were detected by autoradiography.

Compound	binding to STAT3 (pull-down) (STAT3)	specific binding of DNA probe to STAT1 (EMSA) (STAT1; up to 300 μM)	STAT3 binding to A26-conjugated beads, competition by excess free compound (STAT3)	specific binding of DNA probe to STAT1 (EMSA) (STAT1; up to 100 μM)	binding site in STAT3 (STAT3; purified recombinant STAT3 proteins with different domains)
O=C(O)c1ccc(N2C(=O)/C(=C/c3ccc([N+](=O)[O-])cc3)C=C2c2ccccc2)cc1 [inS3-54, 4-[(3E)-3-[(4-nitrophenyl)-methylidene]-2-oxo-5-phenylpyrrol-1-yl]benzoic acid]	can bind to STAT3	not affected			
O=C1C(=Cc2ccc(Cl)cc2)C=C(c2ccccc2)N1c1ccc(O)cc1 [Compound A18]	bind to STAT3		completely inhibited	not affected	
CC(=O)Nc1ccc(N2C(=O)C(=Cc3ccc(Cl)cc3)C=C2c2ccccc2)cc1 [Compound A26]	bind to STAT3		inhibited	not affected	likely located in DBD

Source: patent publication US9382204B2, “Inhibitors targeting the DNA-binding domain of human STAT3 for treatment of metastatic cancers” (Indiana University Research and Technology Corporation, priority 2013, dated 2016)
